In patent publication US12653836B2, “Ketogenic diet and ketone supplementation for cancer therapy” (The Trustees of Princeton University, priority 2020, dated 2026) one finds circulatory turnover flux data, which are given here for four compounds.

The data set in a line: Isotope tracer infusion: circulatory turnover flux (Fcirc). In kind it is in vivo, mouse. The following applies: fasted mice. From the text:
To confirm this idea, and to test whether the same might be true of circulating 3HB and acetoacetate, a set of isotope-tracer infusion experiments was devised. The circulatory turnover flux (Fcirc) of a given metabolite refers to the rate at which tissues collectively take up the metabolite from arterial circulation; alternatively, Fcirc can be defined as the rate at which tissues collectively excrete the metabolite into the venous circulation, as these two rates are equal at steady state in minimally perturbative tracer infusions.
Isotope tracer infusion. For lactate circulatory turnover flux measurements, 10-14 weeks old C57BL/6 mice were catheterized via both left carotid artery and right jugular vein, as non-perturbative arterial blood sampling is required for precise measurement of circulating lactate labeling. Mice were allowed to recover for 5 days. Mice were fasted from ZT2 to ZT6.5. Sodium [2-^2H] or [U-^13C]lactate solution was diluted to 5% w/w in water, and infused into the double catheterized mice from ZT6.5 to ZT9 to pseudo steady state. Arterial blood was sampled to calculate the turnover rate for ^2H or ^13C lactate.
For other tracing experiments, 10-14 weeks old C57BL6/J mice or mice bearing tumors (KPC flank allografts or Kras^LSL-G12D/+Trp53^−/−Pdx-1-Cre GEMM, tumor sizes ˜150 mm^3) were catheterized via right jugular vein. Mice were allowed to recover from surgery for 3-5 days. For 3HB circulatory turnover flux experiments, mice were fasted from ZT2 to ZT6.5, and [3,4,4,4-^2H] or [U-^13C]3HB were infused to catheterized mice from ZT6.5 to ZT9. Tail blood was sampled to calculate the turnover rate for ^2H or ^13C 3HB.
Metabolic flux quantitation. Circulatory turnover flux, Fcirc was calculated as previously described (Hui et al., 2017), using arterial serum for lactate due to its substantial arterial-venous labeling gradient and tail vein serum for other nutrients:
[formula] R is the infusion rate of the labeled tracer and L is the fractional enrichment of infused labeled form of the metabolite tracer. Fcirc values of ^2H-labeled metabolites were corrected for kinetic isotope effect (KIE, determined from the enzymatic assays) by multiplying the observed Fcirc by KIE value of ^2H tracer.
`[2H]C([2H])([2H])C([2H])(O)CC(=O)O` (stereo not shown) [^2H-labeled 3HB, [3,4,4,4-^2H]3HB] showed a circulatory turnover flux of roughly 40 nmol/g/min.

`[2H]C(C)(O)C(=O)[O-].[Na+]` (stereo not shown) [^2H-labeled lactate, Sodium [2-^2H]lactate] returned a circulatory turnover flux of 550 nmol/g/min.

`[13CH3][13CH](O)[13CH2][13C](=O)O` (stereo not shown) [^13C-labeled 3HB, [U-^13C]3HB] had a circulatory turnover flux of roughly 40 nmol/g/min.

Compound `[13CH3][13CH](O)[13C](=O)[O-].[Na+]` (stereo not shown) [^13C-labeled lactate, Sodium [U-^13C]lactate] displayed a circulatory turnover flux of 380 nmol/g/min.
